# Laboratory results from patent publication US20230413822A1, “ORAL CANINE FEED AND METHODS FOR C[…] INFESTATIONS IN A CANINE” (In the Bowl Animal Health, Inc., priority 2021, published 2023).
# Key:
# [1] = Plasma concentration of mivorilaner in dogs fed medicated daily feed (Example 6); type: in vivo; design: unit not given here; conditions: Group 4-318 mg/kg feed (anticipated 3 mg/kg daily), Time 336 hr
# Description: Methods: A pool of dogs are to be preliminarily infested with ˜50 unfed adult R. sanguineus ticks in order to produce dogs that can suitably sustain a reliable infestation rate, defined as approximately 25% of attached ticks being live at the end of a 72-hour period. The 24 dogs with the highest live attached tick counts are to be selected for inclusion in the study. The 18 dogs with the highest live attached tick counts are to be randomly assigned to one of a control group and 2 treatment groups. The 6 dogs with the next highest live attached tick counts are to be assigned to a third treatment group.
# The dogs are to be housed individually during the study period and are to have ad libitum access to water.
# Each dog in a treatment group (test groups 2-4) is to receive a medicated daily feed from study days 0-49. The medicated daily feed is to be offered to the dogs for 1 hour on each of days 0-49 according to test groups listed in TABLE 7.
# Sample results of the average plasma concentration of isoxazoline in a canine's blood at different dosage levels are shown in TABLE 8 and FIG. 9 for mivorilaner.
# [2] = Plasma concentration of mivorilaner in dogs at various daily oral doses (Example 2); type: in vivo; conditions: average plasma
# Description: Methods: A pool of 46 dogs are to be preliminarily infested with ˜50 unfed adult R. sanguineus ticks in order to produce dogs that can suitably sustain a reliable infestation rate, defined as approximately 25% of attached ticks being live at the end of a 48-hour period. The 40 dogs with the highest live attached tick counts are to be selected for inclusion in the study. The dogs are to be randomly assigned to one of a control group and 4 treatment groups.
# The dogs are to be housed individually during the study period and are to be fed a commercial dry dog food ration with ad libitum access to water.
# Each dog in a treatment group (test groups 2-5) is to receive by mouth a liquid formulation of isoxazoline.
# Dogs in the control group are not to receive isoxazoline or any other tick control treatment. Each dog in the treatment group is to be offered its daily ration (dry food) and the individual doses of liquid formulation are to be administered after the individual dog has eaten at least 25% of its total daily ration. After receiving the dose of isoxazoline, the dogs are to be allowed to continue eating. Each dog in treatment groups 3-5 and the control group is to be experimentally infested with 50 adult ticks on test days −2, 5, 12, 19, 28, 35 and 42. Dogs in group 2 are to be infested with 50 adult ticks on test days 19, 28 and 35. Comb counts for live adult ticks are to be conducted on days 2, 7, 14, 21, 30, 37 and 44.
# Sample results of the average plasma concentration of isoxazoline in a canine's blood at different dosage levels of mivorilaner are shown in TABLE 3 and FIG. 4.
compound,measurement,setting,value
"O=C(CNC(=O)c1sc(C2=NO[C@@](c3cc(Cl)c(F)c(Cl)c3)(C(F)(F)F)C2)c2c1CCC2)NCC(F)F [Mivorilaner, 3-[(5S)-5-(3,5-dichloro-4-fluorophenyl)-5-(trifluoromethyl)-4,5-dihydroisoxazol-3-yl]-N-[2-[(2,2-difluoroethyl)amino]-2-oxoethyl]-5,6-dihydro-4H-cyclopenta[c]thiophene-1-carboxamide]",average plasma concentration of isoxazoline in a canine's blood,[1],11600.00
same,Mivorilaner Concentration,"[2]; Group 2 (0.125 mg/kg/day) oral fed, 72 hours after initial dose",135.83 ng/mL
same,Mivorilaner Concentration,"[2]; Group 2 (0.125 mg/kg/day) oral fed, 120 hours after initial dose",212.63 ng/mL
same,Mivorilaner Concentration,"[2]; Group 2 (0.125 mg/kg/day) oral fed, 168 hours after initial dose",243.63 ng/mL
same,Mivorilaner Concentration,"[2]; Group 2 (0.125 mg/kg/day) oral fed, 336 hours after initial dose",383.75 ng/mL
same,Mivorilaner Concentration,"[2]; Group 2 (0.125 mg/kg/day) oral fed, 504 hours after initial dose",404.13 ng/mL
same,Mivorilaner Concentration,"[2]; Group 2 (0.125 mg/kg/day) oral fed, 720 hours after initial dose",419.50 ng/mL
same,Mivorilaner Concentration,"[2]; Group 2 (0.125 mg/kg/day) oral fed, 888 hours after initial dose",447.50 ng/mL
same,Mivorilaner Concentration,"[2]; Group 2 (0.125 mg/kg/day) oral fed, 1056 hours after initial dose",428.38 ng/mL
same,Mivorilaner Concentration,"[2]; Group 2 (0.125 mg/kg/day) oral fed, 1224 hours after initial dose",485.50 ng/mL
same,Mivorilaner Concentration,"[2]; Group 2 (0.125 mg/kg/day) oral fed, 1440 hours after initial dose",897.50 ng/mL
same,Mivorilaner Concentration,"[2]; Group 3 (0.25 mg/kg/day) oral fed, 72 hours after initial dose",283.13 ng/mL
same,Mivorilaner Concentration,"[2]; Group 3 (0.25 mg/kg/day) oral fed, 120 hours after initial dose",450.00 ng/mL
same,Mivorilaner Concentration,"[2]; Group 3 (0.25 mg/kg/day) oral fed, 168 hours after initial dose",579.13 ng/mL
same,Mivorilaner Concentration,"[2]; Group 3 (0.25 mg/kg/day) oral fed, 336 hours after initial dose",883.38 ng/mL
same,Mivorilaner Concentration,"[2]; Group 3 (0.25 mg/kg/day) oral fed, 504 hours after initial dose",877.75 ng/mL
same,Mivorilaner Concentration,"[2]; Group 3 (0.25 mg/kg/day) oral fed, 720 hours after initial dose",1015.63 ng/mL
same,Mivorilaner Concentration,"[2]; Group 3 (0.25 mg/kg/day) oral fed, 888 hours after initial dose",1003.88 ng/mL
same,Mivorilaner Concentration,"[2]; Group 3 (0.25 mg/kg/day) oral fed, 1056 hours after initial dose",945.13 ng/mL
same,Mivorilaner Concentration,"[2]; Group 3 (0.25 mg/kg/day) oral fed, 1224 hours after initial dose",1040.88 ng/mL
same,Mivorilaner Concentration,"[2]; Group 3 (0.25 mg/kg/day) oral fed, 1440 hours after initial dose",999.13 ng/mL
same,Mivorilaner Concentration,"[2]; Group 4 (0.5 mg/kg/day) oral fed, 72 hours after initial dose",474.25 ng/mL
same,Mivorilaner Concentration,"[2]; Group 4 (0.5 mg/kg/day) oral fed, 120 hours after initial dose",763.13 ng/mL
same,Mivorilaner Concentration,"[2]; Group 4 (0.5 mg/kg/day) oral fed, 168 hours after initial dose",888.00 ng/mL
same,Mivorilaner Concentration,"[2]; Group 4 (0.5 mg/kg/day) oral fed, 336 hours after initial dose",1457.88 ng/mL
same,Mivorilaner Concentration,"[2]; Group 4 (0.5 mg/kg/day) oral fed, 504 hours after initial dose",1633.25 ng/mL
same,Mivorilaner Concentration,"[2]; Group 4 (0.5 mg/kg/day) oral fed, 720 hours after initial dose",1873.75 ng/mL
same,Mivorilaner Concentration,"[2]; Group 4 (0.5 mg/kg/day) oral fed, 888 hours after initial dose",1986.25 ng/mL
same,Mivorilaner Concentration,"[2]; Group 4 (0.5 mg/kg/day) oral fed, 1056 hours after initial dose",2012.50 ng/mL
same,Mivorilaner Concentration,"[2]; Group 4 (0.5 mg/kg/day) oral fed, 1224 hours after initial dose",2318.75 ng/mL
same,Mivorilaner Concentration,"[2]; Group 4 (0.5 mg/kg/day) oral fed, 1440 hours after initial dose",2298.75 ng/mL
same,Mivorilaner Concentration,"[2]; Group 5 (1.0 mg/kg/day) oral fed, 72 hours after initial dose",951.25 ng/mL
same,Mivorilaner Concentration,"[2]; Group 5 (1.0 mg/kg/day) oral fed, 120 hours after initial dose",1510.00 ng/mL
same,Mivorilaner Concentration,"[2]; Group 5 (1.0 mg/kg/day) oral fed, 168 hours after initial dose",1793.75 ng/mL
same,Mivorilaner Concentration,"[2]; Group 5 (1.0 mg/kg/day) oral fed, 336 hours after initial dose",2691.25 ng/mL
same,Mivorilaner Concentration,"[2]; Group 5 (1.0 mg/kg/day) oral fed, 504 hours after initial dose",3016.25 ng/mL
same,Mivorilaner Concentration,"[2]; Group 5 (1.0 mg/kg/day) oral fed, 720 hours after initial dose",3756.25 ng/mL
same,Mivorilaner Concentration,"[2]; Group 5 (1.0 mg/kg/day) oral fed, 888 hours after initial dose",3861.25 ng/mL
same,Mivorilaner Concentration,"[2]; Group 5 (1.0 mg/kg/day) oral fed, 1056 hours after initial dose",4263.75 ng/mL
same,Mivorilaner Concentration,"[2]; Group 5 (1.0 mg/kg/day) oral fed, 1224 hours after initial dose",4838.75 ng/mL
same,Mivorilaner Concentration,"[2]; Group 5 (1.0 mg/kg/day) oral fed, 1440 hours after initial dose",4142.50 ng/mL
